Data reported in ChEMBL document CHEMBL5154644, “Design, Synthesis, and Structure-Activity Relationship Optimization of Pyrazolopyrimidine Amide Inhibitors of Phosphoinositide 3-Kinase γ (PI3Kγ)” (J Med Chem, 2022).

Tests used:
Homo sapiens [1] = organism: Homo sapiens; assay: Selectivity ratio of IC50 for inhibition of PI3Kdelta (unknown origin) to IC50 for inhibition of PI3Kgamma (unknown origin)
[2] = biological target: T1, Phosphatidylinositol 4,5-bisphosphate 3-kinase catalytic subunit gamma isoform (Homo sapiens, UniProt P48736); assay: Inhibition of PI3Kgamma (unknown origin) using PIP2 as substrate preincubated for 1 hr followed by substrate addition and measured after 60 mins in presence of ATP by ADP-glo assay
[3] = biological target: T2, Phosphatidylinositol 4,5-bisphosphate 3-kinase catalytic subunit delta isoform (Homo sapiens, UniProt O00329); assay: Inhibition of PI3Kdelta (unknown origin) using PIP2 as substrate preincubated for 1 hr followed by substrate addition and measured after 60 mins in presence of ATP by ADP-glo assay
T2 sequence (O00329 whole entry): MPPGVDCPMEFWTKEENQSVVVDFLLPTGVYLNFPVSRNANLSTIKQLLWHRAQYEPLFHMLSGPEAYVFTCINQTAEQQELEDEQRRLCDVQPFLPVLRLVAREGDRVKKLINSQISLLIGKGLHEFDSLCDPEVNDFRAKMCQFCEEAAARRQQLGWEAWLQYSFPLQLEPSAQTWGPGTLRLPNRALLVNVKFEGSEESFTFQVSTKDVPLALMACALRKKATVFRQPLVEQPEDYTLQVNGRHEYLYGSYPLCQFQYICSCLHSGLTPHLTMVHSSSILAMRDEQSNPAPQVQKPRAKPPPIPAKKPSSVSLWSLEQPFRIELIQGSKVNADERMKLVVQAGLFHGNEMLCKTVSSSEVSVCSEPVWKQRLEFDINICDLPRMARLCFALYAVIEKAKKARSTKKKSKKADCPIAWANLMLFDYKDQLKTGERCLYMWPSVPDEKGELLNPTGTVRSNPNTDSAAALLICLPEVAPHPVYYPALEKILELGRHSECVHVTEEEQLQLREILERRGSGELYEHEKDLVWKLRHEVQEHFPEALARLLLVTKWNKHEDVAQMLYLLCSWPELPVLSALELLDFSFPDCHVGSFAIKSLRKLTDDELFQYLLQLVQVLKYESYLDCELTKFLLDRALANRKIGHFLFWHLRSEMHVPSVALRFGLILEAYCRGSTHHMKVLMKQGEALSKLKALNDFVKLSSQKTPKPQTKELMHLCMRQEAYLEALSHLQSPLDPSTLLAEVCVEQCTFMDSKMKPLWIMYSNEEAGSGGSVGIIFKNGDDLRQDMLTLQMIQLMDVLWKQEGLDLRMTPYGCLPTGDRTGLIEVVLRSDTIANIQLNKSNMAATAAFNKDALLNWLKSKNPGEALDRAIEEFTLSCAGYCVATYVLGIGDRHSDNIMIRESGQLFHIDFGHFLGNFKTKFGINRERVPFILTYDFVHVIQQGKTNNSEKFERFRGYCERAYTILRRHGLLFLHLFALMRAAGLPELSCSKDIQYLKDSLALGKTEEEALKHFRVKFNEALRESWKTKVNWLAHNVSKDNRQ

[4] = Metabolic stability in rat hepatocyte assessed as intrinsic clearance per 10^8 cells at 0.5 uM by LC-MS/MS analysis; assay type: ADME, cell-based; conditions: hepatocytes
[5] = biological target: Phosphatidylinositol 4,5-bisphosphate 3-kinase catalytic subunit alpha isoform (Homo sapiens, UniProt P42336); assay: Inhibition of PI3Kalpha (unknown origin) using PIP2 as substrate preincubated for 1 hr followed by substrate addition and measured after 60 mins in presence of ATP by ADP-glo assay
[6] = biological target: T1, Phosphatidylinositol 4,5-bisphosphate 3-kinase catalytic subunit gamma isoform; assay: Inhibition of PI3Kgamma (unknown origin) in […] stimulated human THP-1 cells assessed as reduction in Akt phosphorylation level at Ser473 residue preincubated for 60 mins followed by rhMCP-1 stimulation and measured after 2 mins by AlphaLisa assay; assay type: cell-based
[7] = Metabolic stability in human hepatocytes assessed as intrinsic clearance per 10^6 cells at 0.5 uM by LC-MS/MS analysis; assay type: ADME, cell-based, Hepatocyte; conditions: read-out: CLH
CYP3A4 = CYP3A4 (Homo sapiens, UniProt P08684); assay: in vitro; conditions: human liver microsomes, probe midazolam
Description: Time dependent inhibition of CYP3A4 in human liver microsomes at 10 uM using midazolam as substrate preincubated for 30 mins in presence of NADPH by LC/MS/MS analysis relative to control

Homo sapiens [8] = organism: Homo sapiens; assay: Selectivity ratio of IC50 for inhibition of PI3Kalpha (unknown origin) to IC50 for inhibition of PI3Kgamma (unknown origin)

Chain of CYP3A4 (P08684 whole entry): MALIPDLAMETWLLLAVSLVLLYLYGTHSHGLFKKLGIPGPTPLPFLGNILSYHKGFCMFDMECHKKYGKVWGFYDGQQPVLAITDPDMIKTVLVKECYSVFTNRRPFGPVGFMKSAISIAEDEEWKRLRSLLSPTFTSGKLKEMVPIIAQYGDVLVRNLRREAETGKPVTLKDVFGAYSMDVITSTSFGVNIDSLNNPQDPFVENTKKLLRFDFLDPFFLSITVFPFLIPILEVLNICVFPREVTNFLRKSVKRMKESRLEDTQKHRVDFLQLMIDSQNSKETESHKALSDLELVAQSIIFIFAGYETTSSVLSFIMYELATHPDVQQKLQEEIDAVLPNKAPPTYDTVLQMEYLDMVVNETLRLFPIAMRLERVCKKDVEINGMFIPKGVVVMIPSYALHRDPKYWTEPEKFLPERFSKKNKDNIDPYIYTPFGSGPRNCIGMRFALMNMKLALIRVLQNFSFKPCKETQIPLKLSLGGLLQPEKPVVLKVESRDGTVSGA
Chain of Phosphatidylinositol 4,5-bisphosphate 3-kinase catalytic subunit alpha isoform (P42336 whole entry, canonical isoform): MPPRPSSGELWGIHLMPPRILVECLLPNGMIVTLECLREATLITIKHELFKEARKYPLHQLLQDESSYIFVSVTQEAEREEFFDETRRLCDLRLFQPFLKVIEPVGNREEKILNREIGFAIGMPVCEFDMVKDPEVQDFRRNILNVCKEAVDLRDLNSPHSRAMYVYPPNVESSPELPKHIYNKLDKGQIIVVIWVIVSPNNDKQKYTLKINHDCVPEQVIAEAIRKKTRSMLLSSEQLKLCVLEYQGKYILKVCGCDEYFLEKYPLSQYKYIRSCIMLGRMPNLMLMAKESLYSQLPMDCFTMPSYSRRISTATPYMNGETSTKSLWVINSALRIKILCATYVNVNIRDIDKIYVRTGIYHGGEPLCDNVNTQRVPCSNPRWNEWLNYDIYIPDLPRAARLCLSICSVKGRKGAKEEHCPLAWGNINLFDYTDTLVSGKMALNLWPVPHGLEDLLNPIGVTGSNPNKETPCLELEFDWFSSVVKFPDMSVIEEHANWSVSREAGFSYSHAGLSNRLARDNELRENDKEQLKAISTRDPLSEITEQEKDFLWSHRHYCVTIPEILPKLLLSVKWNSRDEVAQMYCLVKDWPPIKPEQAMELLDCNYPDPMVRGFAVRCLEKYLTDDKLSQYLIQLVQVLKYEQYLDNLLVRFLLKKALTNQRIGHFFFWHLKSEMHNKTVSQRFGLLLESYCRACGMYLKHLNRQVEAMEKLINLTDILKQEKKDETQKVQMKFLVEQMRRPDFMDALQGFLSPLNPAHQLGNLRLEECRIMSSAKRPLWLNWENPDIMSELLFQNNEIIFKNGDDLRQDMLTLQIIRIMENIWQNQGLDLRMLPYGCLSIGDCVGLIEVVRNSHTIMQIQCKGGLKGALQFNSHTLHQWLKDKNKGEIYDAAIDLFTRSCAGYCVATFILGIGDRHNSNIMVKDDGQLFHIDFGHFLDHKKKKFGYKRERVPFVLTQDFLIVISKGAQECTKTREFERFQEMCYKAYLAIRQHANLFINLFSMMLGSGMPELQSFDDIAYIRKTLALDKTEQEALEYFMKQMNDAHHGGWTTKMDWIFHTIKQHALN
T1 sequence (P48736 whole entry, canonical isoform): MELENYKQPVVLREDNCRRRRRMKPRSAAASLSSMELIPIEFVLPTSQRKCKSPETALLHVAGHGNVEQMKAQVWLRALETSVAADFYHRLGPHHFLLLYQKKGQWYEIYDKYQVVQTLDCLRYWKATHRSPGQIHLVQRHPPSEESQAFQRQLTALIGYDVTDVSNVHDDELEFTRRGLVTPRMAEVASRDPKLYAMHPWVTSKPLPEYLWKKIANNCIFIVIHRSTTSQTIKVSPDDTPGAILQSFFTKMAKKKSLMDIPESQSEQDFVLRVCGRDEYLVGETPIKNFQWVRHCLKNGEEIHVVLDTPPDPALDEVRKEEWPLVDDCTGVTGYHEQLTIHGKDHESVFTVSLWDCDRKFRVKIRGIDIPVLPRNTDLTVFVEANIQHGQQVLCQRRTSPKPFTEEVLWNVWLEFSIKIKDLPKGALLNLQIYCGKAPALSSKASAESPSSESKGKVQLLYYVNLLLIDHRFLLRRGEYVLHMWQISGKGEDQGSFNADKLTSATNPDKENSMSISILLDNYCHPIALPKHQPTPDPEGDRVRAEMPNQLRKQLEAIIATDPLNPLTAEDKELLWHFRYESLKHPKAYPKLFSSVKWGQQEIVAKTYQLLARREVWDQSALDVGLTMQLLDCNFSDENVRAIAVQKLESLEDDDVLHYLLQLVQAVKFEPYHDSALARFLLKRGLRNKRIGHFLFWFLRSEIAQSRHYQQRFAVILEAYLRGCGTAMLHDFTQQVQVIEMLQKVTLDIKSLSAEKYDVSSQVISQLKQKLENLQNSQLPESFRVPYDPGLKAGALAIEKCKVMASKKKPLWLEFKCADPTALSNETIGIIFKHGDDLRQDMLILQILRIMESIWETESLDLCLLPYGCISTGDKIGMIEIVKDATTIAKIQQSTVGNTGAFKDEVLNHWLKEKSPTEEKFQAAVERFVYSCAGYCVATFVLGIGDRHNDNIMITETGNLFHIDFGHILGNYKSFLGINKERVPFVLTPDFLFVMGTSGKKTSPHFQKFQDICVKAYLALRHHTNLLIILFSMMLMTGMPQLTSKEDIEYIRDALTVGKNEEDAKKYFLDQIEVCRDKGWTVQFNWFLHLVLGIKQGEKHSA

## CC(C)c1cc(-c2ccn3nc(N)c(C(=O)NC4CC4)c3n2)cc2c1C(=O)N([C@@H](C)C1CC1)C2
Homo sapiens [1]
  Ratio IC50: 322
[2]
  IC50: 0.0046 µM
[3]
  IC50: 1.48 µM
[4]
  hepatocyte intrinsic clearance: 2.41 µL/min
[5]
  IC50: 1.01 µM
[6]
  IC50: 0.054 µM
[7]
  hepatocyte CLint at 0.5 µM: < 1.2 µL/min/1e6 cells
CYP3A4
  inhibition at 30 min, 10 µM: 28%
Homo sapiens [8]
  Ratio IC50: 220

## Cc1cc(-c2ccn3nc(N)c(C(=O)N[C@H]4CC[C@H](C(=O)O)CC4)c3n2)cc2c1C(=O)N([C@@H](C)C1CC1)C2
Homo sapiens [1]
  Ratio IC50: 9
[2]
  IC50: 0.0021 µM
[3]
  IC50: 0.02 µM
[5]
  IC50: 0.029 µM
[6]
  IC50: 0.397 µM
Homo sapiens [8]
  Ratio IC50: 13

## COc1cc(-c2ccn3nc(N)c(C(=O)NC4CC4)c3n2)cc2c1C(=O)N([C@@H](C)C1CC1)C2
Homo sapiens [1]
  Ratio IC50: 122
[2]
  IC50: 0.0038 µM
[3]
  IC50: 0.459 µM
[4]
  hepatocyte intrinsic clearance: 2.07 µL/min
[5]
  IC50: 0.281 µM
[6]
  IC50: 0.121 µM
[7]
  hepatocyte CLint at 0.5 µM: 1.81 µL/min/1e6 cells
CYP3A4
  inhibition at 30 min, 10 µM: 28%
Homo sapiens [8]
  Ratio IC50: 74

## C[C@@H](C1CC1)N1Cc2cc(-c3ccn4nc(N)c(C(=O)NC5CC5)c4n3)cc(OC(F)F)c2C1=O
Homo sapiens [1]
  Ratio IC50: 907
[2]
  IC50: 0.0018 µM
[3]
  IC50: 2.12 µM
[4]
  hepatocyte intrinsic clearance: 12.6 µL/min
[5]
  IC50: 0.602 µM
[6]
  IC50: 0.071 µM
[7]
  hepatocyte CLint at 0.5 µM: 40.4 µL/min/1e6 cells
CYP3A4
  inhibition at 30 min, 10 µM: 16%
Homo sapiens [8]
  Ratio IC50: 330

## Cc1cc(-c2ccn3nc(N)c(C(=O)NC4CC4)c3n2)cc2c1C(=O)N([C@@H](C1CC1)C(F)(F)F)C2
Homo sapiens [1]
  Ratio IC50: > 566
[2]
  IC50: 0.0177 µM
[3]
  IC50: > 10 µM
[5]
  IC50: > 10 µM
[6]
  IC50: 0.795 µM
Homo sapiens [8]
  Ratio IC50: > 566

## C[C@@H](C1CC1)N1Cc2cc(-c3ccn4nc(N)c(C(=O)NC5CC5)c4n3)cc(S(=O)(=O)C3CCC3)c2C1=O
Homo sapiens [1]
  Ratio IC50: 124
[2]
  IC50: 0.003 µM
[3]
  IC50: 0.376 µM
[4]
  hepatocyte intrinsic clearance: 4.14 µL/min
[5]
  IC50: 0.512 µM
[6]
  IC50: 0.05 µM
[7]
  hepatocyte CLint at 0.5 µM: 4.89 µL/min/1e6 cells
CYP3A4
  inhibition at 30 min, 10 µM: 35%

## CNS(=O)(=O)c1cc(-c2ccn3nc(N)c(C(=O)N[C@H]4CC[C@](C)(O)CC4)c3n2)cc2c1C(=O)N([C@@H](C)C(F)(F)F)C2
Homo sapiens [1]
  Ratio IC50: 22
[2]
  IC50: 0.0009 µM
[3]
  IC50: 0.02 µM
[4]
  hepatocyte intrinsic clearance: < 1.2 µL/min
[5]
  IC50: 0.049 µM
[6]
  IC50: 0.032 µM
[7]
  hepatocyte CLint at 0.5 µM: 2.77 µL/min/1e6 cells
Homo sapiens [8]
  Ratio IC50: 53

## Cc1cc(-c2ccn3ncc(-c4cnn(C)c4)c3n2)cc2c1C(=O)N([C@@H](C)C1CC1)C2
[4]
  hepatocyte intrinsic clearance: 10.3 µL/min
[6]
  IC50: 0.468 µM
[7]
  hepatocyte CLint at 0.5 µM: 27.2 µL/min/1e6 cells
CYP3A4
  inhibition at 30 min, 10 µM: 67%

## C[C@@H](C1CC1)N1Cc2cc(-c3ccn4nc(N)c(C(=O)NC5CC5)c4n3)cc(Cl)c2C1=O
Homo sapiens [1]
  Ratio IC50: 589
[2]
  IC50: 0.0024 µM
[3]
  IC50: 1.43 µM
[4]
  hepatocyte intrinsic clearance: 2.89 µL/min
[5]
  IC50: 0.686 µM
[6]
  IC50: 0.103 µM
[7]
  hepatocyte CLint at 0.5 µM: < 1.2 µL/min/1e6 cells
CYP3A4
  inhibition at 30 min, 10 µM: 36%
Homo sapiens [8]
  Ratio IC50: 282

## CC(C)[C@H](N1Cc2cc(-c3ccn4nc(N)c(C(=O)NC5CC5)c4n3)cc(NS(C)(=O)=O)c2C1=O)C(F)(F)F
Homo sapiens [1]
  Ratio IC50: 323
[2]
  IC50: 0.0085 µM
[3]
  IC50: 2.75 µM
[4]
  hepatocyte intrinsic clearance: 3.65 µL/min
[5]
  IC50: 3.68 µM
[6]
  IC50: 0.15 µM
[7]
  hepatocyte CLint at 0.5 µM: 6.52 µL/min/1e6 cells
CYP3A4
  inhibition at 30 min, 10 µM: 55%

## CNS(=O)(=O)c1cc(-c2ccn3nc(N)c(C(=O)N[C@@H](CO)C4CC4)c3n2)cc2c1C(=O)N([C@@H](C)C(F)(F)F)C2
Homo sapiens [1]
  Ratio IC50: 65
[2]
  IC50: 0.0013 µM
[3]
  IC50: 0.086 µM
[4]
  hepatocyte intrinsic clearance: 3.82 µL/min
[5]
  IC50: 0.363 µM
[6]
  IC50: 0.096 µM
[7]
  hepatocyte CLint at 0.5 µM: 1.61 µL/min/1e6 cells
Homo sapiens [8]
  Ratio IC50: 274

## CS(=O)(=O)Nc1cc(-c2ccn3nc(N)c(C(=O)NC4CC4)c3n2)cc2c1C(=O)N([C@@H](C1CC1)C(F)(F)F)C2
Homo sapiens [1]
  Ratio IC50: 2780
[2]
  IC50: 0.0017 µM
[3]
  IC50: 4.58 µM
[4]
  hepatocyte intrinsic clearance: < 1.2 µL/min
[5]
  IC50: 5.36 µM
[6]
  IC50: 0.088 µM
[7]
  hepatocyte CLint at 0.5 µM: < 1.2 µL/min/1e6 cells
CYP3A4
  inhibition at 30 min, 10 µM: 22%

## CCN1Cc2cc(-c3ccn4nc(N)c(C(=O)NC5CC5)c4n3)cc(C)c2C1=O
Homo sapiens [1]
  Ratio IC50: 32
[2]
  IC50: 0.0056 µM
[3]
  IC50: 0.179 µM
[5]
  IC50: 0.118 µM
[6]
  IC50: 0.338 µM
Homo sapiens [8]
  Ratio IC50: 21

## CC[C@H](N1Cc2cc(-c3ccn4nc(N)c(C(=O)NC5CC5)c4n3)cc(NS(C)(=O)=O)c2C1=O)C(F)(F)F
Homo sapiens [1]
  Ratio IC50: 403
[2]
  IC50: 0.0033 µM
[3]
  IC50: 1.31 µM
[4]
  hepatocyte intrinsic clearance: 6.67 µL/min
[5]
  IC50: 2.83 µM
[6]
  IC50: 0.031 µM
[7]
  hepatocyte CLint at 0.5 µM: 2.91 µL/min/1e6 cells
CYP3A4
  inhibition at 30 min, 10 µM: 62%

## C[C@H](N1Cc2cc(-c3ccn4nc(N)c(C(=O)NC5CC5)c4n3)cc(NS(C)(=O)=O)c2C1=O)C(F)(F)F
Homo sapiens [1]
  Ratio IC50: 89
[2]
  IC50: 0.0008 µM
[3]
  IC50: 0.068 µM
[4]
  hepatocyte intrinsic clearance: < 1.2 µL/min
[5]
  IC50: 0.097 µM
[6]
  IC50: 0.016 µM
[7]
  hepatocyte CLint at 0.5 µM: < 1.2 µL/min/1e6 cells
CYP3A4
  inhibition at 30 min, 10 µM: 14%

## Cc1cc(-c2ccn3nc(N)c(C(=O)NC4CC4)c3n2)cc2c1C(=O)N(CC1CC1)C2
Homo sapiens [1]
  Ratio IC50: 84
[2]
  IC50: 0.0101 µM
[3]
  IC50: 0.911 µM
[5]
  IC50: 0.431 µM
[6]
  IC50: 0.258 µM
Homo sapiens [8]
  Ratio IC50: 42

## Cc1cc(-c2ccn3nc(N)c(C(=O)N[C@H]4CC[C@H](N)CC4)c3n2)cc2c1C(=O)N([C@@H](C)C1CC1)C2
Homo sapiens [1]
  Ratio IC50: 2250
[2]
  IC50: 0.002 µM
[3]
  IC50: 4.53 µM
[4]
  hepatocyte intrinsic clearance: 19.3 µL/min
[5]
  IC50: > 10 µM
[6]
  IC50: 0.276 µM
[7]
  hepatocyte CLint at 0.5 µM: 4.74 µL/min/1e6 cells
Homo sapiens [8]
  Ratio IC50: > 4960
